According to the supplement of paper PMC10307832:

How the values were obtained:
Assay in all cases: relative viability (nuclei count vs DMSO), 5 days (fraction); higher = more cells survive
AZ3146 + Trametinib = compound: CN1CCC(CC1)OC2=CC(=C(C=C2)NC3=NC=C4C(=N3)N(C(=O)N4C)C5CCCC5)OC [AZ3146] + CC(=O)Nc1cccc(-n2c(=O)n(C3CC3)c(=O)c3c(Nc4ccc(I)cc4F)n(C)c(=O)c(C)c32)c1 [Trametinib] (partner 0.02 µM)
Outline: (§1)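 Lung cancer cell lines were seeded in 1536-well plates and dosed by pin tool the next day, with either a single drug or a fixed anchor-drug dose combined with five library-drug doses (not always all listed) spaced in √10 steps. Five days later, one step fixed the cells and stained their nuclei (final 0.05% Triton X-100, 1% formaldehyde, 1 ug/ml Hoechst), and nuclei were counted on 4× images. Relative viability is the nuclei count in treated wells divided by the count in vehicle wells, and each value is the median of duplicate plates.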

AZ3146 + AZD7762 = compound: CN1CCC(CC1)OC2=CC(=C(C=C2)NC3=NC=C4C(=N3)N(C(=O)N4C)C5CCCC5)OC [AZ3146] + NC(=O)Nc1cc(-c2cccc(F)c2)sc1C(=O)N[C@H]1CCCNC1 [AZD7762] (partner 0.2 µM)
Outline: as §1

GSK-J4 + Decitabine = compound: CCOC(=O)CCNc1cc(N2CCc3ccccc3CC2)nc(-c2ccccn2)n1 [GSK-J4] + Nc1ncn([C@H]2C[C@H](O)[C@@H](CO)O2)c(=O)n1 [Decitabine] (partner 2 µM)
Outline: as §1

GSK-J4 + Pictilisib = compound: CCOC(=O)CCNc1cc(N2CCc3ccccc3CC2)nc(-c2ccccn2)n1 [GSK-J4] + CS(=O)(=O)N1CCN(Cc2cc3nc(-c4cccc5[nH]ncc45)nc(N4CCOCC4)c3s2)CC1 [Pictilisib] (partner 1 µM)
Outline: as §1

| Cell Line | relative viability (AZ3146 + Trametinib; first compound 0.08 µM) | relative viability (AZ3146 + Trametinib; first compound 0.253 µM) | relative viability (AZ3146 + Trametinib; first compound 0.8 µM) | relative viability (AZ3146 + Trametinib; first compound 2.53 µM) | relative viability (AZ3146 + Trametinib; first compound 8 µM) | relative viability (AZ3146 + AZD7762; first compound 0.08 µM) | relative viability (AZ3146 + AZD7762; first compound 0.253 µM) | relative viability (AZ3146 + AZD7762; first compound 0.8 µM) | relative viability (AZ3146 + AZD7762; first compound 2.53 µM) | relative viability (AZ3146 + AZD7762; first compound 8 µM) | relative viability (GSK-J4 + Decitabine; first compound 0.5 µM) | relative viability (GSK-J4 + Decitabine; first compound 1.581 µM) | relative viability (GSK-J4 + Decitabine; first compound 5 µM) | relative viability (GSK-J4 + Decitabine; first compound 15.81 µM) | relative viability (GSK-J4 + Decitabine; first compound 50 µM) | relative viability (GSK-J4 + Pictilisib; first compound 0.5 µM) | relative viability (GSK-J4 + Pictilisib; first compound 1.581 µM) | relative viability (GSK-J4 + Pictilisib; first compound 5 µM) | relative viability (GSK-J4 + Pictilisib; first compound 15.81 µM) | relative viability (GSK-J4 + Pictilisib; first compound 50 µM) |
| --- | --- | --- | --- | --- | --- | --- | --- | --- | --- | --- | --- | --- | --- | --- | --- | --- | --- | --- | --- | --- |
| 201T | 0.718 | 0.728 | 0.73 | 0.677 | 0.685 | 0.534 | 0.643 | 0.634 | 0.553 | 0.594 | 0.826 | 0.886 | 0.847 | 0.831 | 0.875 | 0.653 | 0.791 | 0.726 | 0.687 | 0.598 |
| A549 | – | – | – | – | – | – | – | – | – | – | 0.241 | 0.205 | 0.246 | 0.244 | 0.282 | 0.43 | – | 0.573 | 0.488 | 0.332 |
| A-427 | 0.76 | 0.753 | 0.747 | 0.751 | 0.545 | 0.622 | 0.665 | 0.56 | 0.527 | 0.508 | 0.554 | 0.528 | – | 0.523 | 0.434 | 0.703 | – | 0.688 | 0.613 | 0.675 |
| ABC-1 | – | – | – | – | – | 0.756 | 0.717 | 0.829 | 0.893 | 1 | 1 | 1.16 | 1.05 | 0.883 | 0.795 | 0.686 | 0.591 | 0.671 | 0.648 | 0.436 |
| BEN | – | 1 | 1.05 | 0.971 | 1.04 | – | 0.608 | 0.668 | 0.589 | 0.68 | 0.762 | 0.511 | 0.489 | 0.679 | 0.597 | 0.666 | 0.471 | – | 0.539 | 0.33 |
| CAL-12T | 0.46 | 0.304 | 0.321 | 0.313 | 0.314 | 0.656 | 0.653 | 0.678 | 0.604 | 0.611 | – | – | – | – | – | 0.622 | 0.425 | 0.626 | 0.418 | 0.454 |
| COR-L23 | 0.587 | 0.646 | 0.56 | 0.718 | 0.6 | – | – | – | – | – | 0.393 | 0.384 | – | 0.386 | 0.352 | 0.731 | 0.532 | – | 0.606 | 0.566 |
| COR-L 105 | 0.471 | 0.414 | 0.477 | 0.427 | 0.353 | – | – | – | – | – | 0.723 | – | 0.507 | 0.644 | 0.654 | 0.519 | 0.414 | 0.375 | 0.402 | 0.36 |
| Calu-6 | – | – | – | – | – | – | – | – | – | – | – | – | – | – | – | 0.825 | 0.874 | 0.895 | 0.88 | 0.807 |
| ChaGo-K-1 | 0.826 | 0.895 | 0.836 | 0.892 | 0.957 | 0.739 | 0.91 | 0.865 | 0.833 | 0.733 | 0.535 | – | 0.557 | 0.479 | 0.471 | 0.864 | – | 0.655 | 0.82 | 0.596 |
| EBC-1 | – | – | – | – | – | – | – | – | – | – | – | – | – | – | – | 0.376 | 0.336 | 0.451 | 0.416 | 0.257 |
| EKVX | 0.331 | 0.305 | 0.202 | 0.345 | 0.332 | 0.506 | 0.773 | 0.541 | 0.787 | 0.824 | 0.297 | – | 0.355 | 0.324 | 0.299 | 0.343 | 0.536 | 0.619 | 0.424 | 0.397 |
| EMC-BAC-2 | – | – | 0.89 | 0.921 | 0.844 | 0.94 | 1.09 | 1.25 | 0.998 | 1.07 | 1 | 0.862 | – | 0.947 | 0.869 | 0.627 | 0.597 | 0.423 | 0.598 | 0.52 |
| EPLC-272H | 0.312 | 0.281 | 0.272 | 0.268 | 0.247 | 0.136 | 0.199 | 0.175 | 0.24 | 0.237 | 0.408 | 0.33 | 0.448 | 0.339 | 0.308 | 0.428 | – | 0.35 | 0.275 | 0.219 |
| H3255 | 0.649 | 0.57 | 0.555 | 0.614 | 0.544 | 0.863 | 0.837 | 0.768 | 0.825 | 0.841 | 0.619 | – | 0.593 | 0.463 | 0.409 | 0.415 | 0.414 | 0.498 | 0.412 | 0.424 |
| HARA | 0.708 | 0.491 | 0.634 | 0.858 | 0.623 | 0.189 | 0.416 | 0.344 | 0.21 | 0.169 | 0.506 | 0.49 | – | 0.506 | 0.369 | 0.375 | 0.443 | – | 0.524 | 0.156 |
| HCC-15 | 0.421 | 0.346 | 0.357 | 0.414 | 0.348 | 1.27 | 1.1 | 1.33 | 1.1 | 1.16 | 0.696 | 0.492 | 0.581 | 0.536 | 0.38 | 0.743 | 0.353 | 0.784 | 0.666 | 0.473 |
| HCC-44 | 1.07 | 1.02 | 0.996 | 1.04 | 1.15 | 1.02 | 0.978 | 1.12 | 1 | 0.979 | 0.932 | 0.716 | 0.823 | 1.03 | 1.06 | 0.665 | 0.57 | 0.498 | 0.553 | 0.442 |
| HCC-78 | – | 0.65 | 0.738 | 0.823 | 0.749 | – | 0.577 | 0.57 | 0.53 | 0.717 | 0.726 | 0.633 | 0.71 | 0.549 | 0.621 | 0.202 | 0.185 | 0.889 | – | 0.225 |
| HCC-366 | 0.31 | 0.412 | 0.311 | 0.341 | 0.316 | 0.212 | 0.288 | 0.263 | 0.203 | 0.112 | 0.33 | 0.283 | – | 0.283 | 0.277 | 0.125 | – | 0.137 | 0.181 | 0.122 |
